Test results taken from ChEMBL document CHEMBL5104103 (J Med Chem, 2022).
Active and inactive are the calls of the source. The calls are words filed in the database; no cut-off is given here.

Assays:
[1] = Toxicity in female Beagle dog assessed as NOAEL; parameters: species or system Canis lupus familiaris; details: in vivo
[2] = Inhibition of EGF-stimulated AP-1 activation in human ME-180 cells by EGFR-based reporter assay; type: cell-based
[3] = Toxicity in male Beagle dog assessed as NOAEL; parameters: species or system Canis lupus familiaris; details: in vivo
[4] = biological target: T1, Cytoplasmic tyrosine-protein kinase BMX (Homo sapiens) (UniProt P51813); assay: Displacement of competitive tracer from BMX (unknown origin) assessed as target occupancy at […] preincubated for 15 mins measured for 1 hr relative to control; details: dose 1.5 µM
T1 sequence (whole entry): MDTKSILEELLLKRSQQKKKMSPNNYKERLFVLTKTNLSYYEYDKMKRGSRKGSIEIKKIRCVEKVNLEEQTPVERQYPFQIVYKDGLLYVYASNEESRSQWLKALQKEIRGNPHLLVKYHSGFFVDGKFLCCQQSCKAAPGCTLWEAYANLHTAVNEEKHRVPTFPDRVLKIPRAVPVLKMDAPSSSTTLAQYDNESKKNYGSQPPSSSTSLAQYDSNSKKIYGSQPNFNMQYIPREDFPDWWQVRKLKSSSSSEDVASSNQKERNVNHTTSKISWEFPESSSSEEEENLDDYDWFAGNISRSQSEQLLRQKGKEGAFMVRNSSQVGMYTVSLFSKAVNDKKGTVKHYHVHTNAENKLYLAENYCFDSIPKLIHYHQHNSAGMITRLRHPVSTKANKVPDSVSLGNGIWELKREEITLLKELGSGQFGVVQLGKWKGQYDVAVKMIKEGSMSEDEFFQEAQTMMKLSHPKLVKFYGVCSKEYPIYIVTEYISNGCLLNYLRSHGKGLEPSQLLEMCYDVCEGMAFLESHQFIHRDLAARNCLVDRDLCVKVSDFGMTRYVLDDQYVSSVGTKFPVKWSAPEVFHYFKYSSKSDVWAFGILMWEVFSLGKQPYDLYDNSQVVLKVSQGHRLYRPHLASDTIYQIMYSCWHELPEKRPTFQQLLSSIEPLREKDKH

Canis lupus familiaris = assay: Effect on canine pemphigus foliaceous dog model assessed as reduction in lesion at 8 to 21 mg/kg measured for 2 weeks; type: functional, organism-based; details: dose lower 8.0 mg/kg, dose upper […]
[5] = biological target: Tyrosine-protein kinase Blk (Homo sapiens, UniProt P51451); assay: Displacement of competitive tracer from BLK (unknown origin) assessed as target occupancy at […] preincubated for 15 mins measured for 6 hrs relative to control; details: dose 1.5 µM
[6] = Inhibition of NFAT activation in anti-CD3/anti-CD28-stimulated human Jurkat T cells; type: cell-based
[7] = biological target: Adenosine receptor A3 (Homo sapiens) (UniProt P0DMS8); assay: Displacement of [125I]AB-MECA from recombinant human Adenosine receptor A3 at 10 uM incubated for 120 mins by radiometric scintillation assay relative to control
[8] = biological target: T2, Tyrosine-protein kinase Tec (Homo sapiens) (UniProt P42680); assay: Displacement of competitive tracer from TEC (unknown origin) assessed as target occupancy at […] preincubated for 15 mins measured for 24 hrs relative to control; details: dose 1.5 µM
T2 sequence (whole entry): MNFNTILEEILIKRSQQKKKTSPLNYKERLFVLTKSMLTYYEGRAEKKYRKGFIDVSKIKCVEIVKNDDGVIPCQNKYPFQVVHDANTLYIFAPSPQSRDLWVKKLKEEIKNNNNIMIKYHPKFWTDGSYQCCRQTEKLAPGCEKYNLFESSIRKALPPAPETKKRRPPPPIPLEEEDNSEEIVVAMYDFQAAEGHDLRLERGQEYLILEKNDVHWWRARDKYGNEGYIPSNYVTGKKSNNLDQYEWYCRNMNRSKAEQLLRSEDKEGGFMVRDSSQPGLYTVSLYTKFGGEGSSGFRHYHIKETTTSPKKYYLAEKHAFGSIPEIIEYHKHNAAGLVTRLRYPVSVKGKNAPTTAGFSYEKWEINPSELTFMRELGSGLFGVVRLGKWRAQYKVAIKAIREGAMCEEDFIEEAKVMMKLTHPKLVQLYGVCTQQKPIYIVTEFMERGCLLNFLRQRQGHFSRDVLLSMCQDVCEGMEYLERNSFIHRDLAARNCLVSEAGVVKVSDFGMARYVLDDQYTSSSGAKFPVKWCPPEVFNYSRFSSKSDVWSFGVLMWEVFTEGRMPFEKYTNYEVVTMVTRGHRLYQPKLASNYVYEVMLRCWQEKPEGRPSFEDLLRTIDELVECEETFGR

[9] = biological target: T1, Cytoplasmic tyrosine-protein kinase BMX (Homo sapiens); assay: Displacement of competitive tracer from BMX (unknown origin) assessed as target occupancy at […] preincubated for 15 mins measured for 24 hrs relative to control; details: dose 1.5 µM
[10] = biological target: T3, Tyrosine-protein kinase TXK (Homo sapiens) (UniProt P42681); assay: Displacement of competitive tracer from RLK (unknown origin) assessed as target occupancy at […] preincubated for 15 mins measured for 1 hr relative to control; details: dose 1.5 µM
T3 sequence (whole entry): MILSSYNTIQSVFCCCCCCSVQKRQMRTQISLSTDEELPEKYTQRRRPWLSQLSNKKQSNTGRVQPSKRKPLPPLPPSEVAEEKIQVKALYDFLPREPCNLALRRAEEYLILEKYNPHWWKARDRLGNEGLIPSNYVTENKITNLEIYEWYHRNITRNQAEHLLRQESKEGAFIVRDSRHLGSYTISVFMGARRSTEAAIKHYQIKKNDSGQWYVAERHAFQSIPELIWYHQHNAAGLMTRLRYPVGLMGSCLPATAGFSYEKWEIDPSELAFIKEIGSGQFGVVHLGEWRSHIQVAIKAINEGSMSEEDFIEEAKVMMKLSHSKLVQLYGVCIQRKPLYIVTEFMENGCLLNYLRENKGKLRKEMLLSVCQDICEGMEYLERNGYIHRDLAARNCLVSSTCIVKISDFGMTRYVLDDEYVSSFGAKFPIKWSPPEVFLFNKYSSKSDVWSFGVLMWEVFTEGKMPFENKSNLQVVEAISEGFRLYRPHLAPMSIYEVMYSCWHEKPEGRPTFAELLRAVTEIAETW

[11] = biological target: T1, Cytoplasmic tyrosine-protein kinase BMX (Homo sapiens); assay: Displacement of competitive tracer from BMX (unknown origin) assessed as target occupancy at […] preincubated for 15 mins measured for 6 hrs relative to control; details: dose 1.5 µM

Chain of Tyrosine-protein kinase Blk (P51451 2-505 limits assumed): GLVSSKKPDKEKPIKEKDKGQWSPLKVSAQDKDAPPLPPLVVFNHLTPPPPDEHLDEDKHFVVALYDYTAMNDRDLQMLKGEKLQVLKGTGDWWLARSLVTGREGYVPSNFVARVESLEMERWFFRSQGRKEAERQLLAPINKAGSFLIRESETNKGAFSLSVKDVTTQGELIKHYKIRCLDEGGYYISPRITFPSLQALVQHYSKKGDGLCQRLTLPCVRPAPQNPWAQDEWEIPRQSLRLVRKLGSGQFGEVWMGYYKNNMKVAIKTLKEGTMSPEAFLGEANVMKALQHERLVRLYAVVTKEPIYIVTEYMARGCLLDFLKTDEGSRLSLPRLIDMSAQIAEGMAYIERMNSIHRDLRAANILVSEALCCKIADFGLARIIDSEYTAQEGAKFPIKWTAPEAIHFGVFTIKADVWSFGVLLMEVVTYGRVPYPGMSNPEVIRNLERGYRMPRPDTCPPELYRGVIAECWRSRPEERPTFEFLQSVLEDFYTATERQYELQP
Chain of Adenosine receptor A3 (Homo sapiens) (P0DMS8 whole entry): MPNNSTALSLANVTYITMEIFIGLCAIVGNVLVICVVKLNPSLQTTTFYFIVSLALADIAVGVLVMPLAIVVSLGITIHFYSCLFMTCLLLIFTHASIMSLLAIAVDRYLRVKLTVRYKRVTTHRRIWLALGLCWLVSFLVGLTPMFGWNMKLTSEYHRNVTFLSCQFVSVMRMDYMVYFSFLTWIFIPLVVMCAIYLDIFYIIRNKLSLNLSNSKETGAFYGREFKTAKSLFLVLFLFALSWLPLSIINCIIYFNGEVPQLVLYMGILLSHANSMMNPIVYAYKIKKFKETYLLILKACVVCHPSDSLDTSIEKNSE

## CC(C)(C)/C=C(\C#N)C(=O)N1CCC[C@@H](n2nc(-c3ccc(Oc4ccccc4)cc3F)c3c(N)ncnc32)C1 [ATUZABRUTINIB]
[1]
  NOAEL: 120 mg/kg
[2]
  IC50: > 5000 nM
[3]
  NOAEL: 400 mg/kg
[4]
  Activity: 90%
Canis lupus familiaris
  Activity: Active
[5]
  Activity: 44%
[6]
  IC50: 2100 nM
[7]
  inhibition: > 50%
[8]
  Activity: 76%
[9]
  Activity: 69%
[10]
  Activity: 88%
[11]
  Activity: 82%
